Laboratory results: paper PMC6278313
Changes are numbered by the printed parent chain. Read-outs that look alike come from different tables or passages of the source.

Columns and labels:
[1] = test system: all tested receptors, transporters, and binding sites; assay: NIMH-PDSP radioligand binding screen, whole panel; settings: 10 μM; except the sites named for 17 and 27
COX-1 [2] = biological target: T1, COX-1 (Homo sapiens, UniProt P23219); assay: COX-1 inhibition, human whole blood (Thromboxane B2 EIA)
Protocol: (§1) Thromboxane B2 EIA kit (COX-1) and Prostaglandin E2 EIA Kit (COX-2) were purchased from Cayman Chemicals, USA [45]. Blood from non-treated rhesus monkey and healthy human subjects was used with these ELISA kits to establish the inhibitory potencies (IC50’s) of test compounds for these enzymes [46]. Thromboxane, the product of COX-1, and prostaglandin E2, the product of COX2, were measured using 96-well plates and a UV spectrophotometer. The concentration-inhibition curves were fitted into a 4-parameter non-linear regression model in GraphPad Prism to calculate the IC50 of each test compound.

COX-2 [3] = biological target: T2, COX-2 (Homo sapiens, UniProt P35354); assay: COX-2 inhibition, human whole blood (Prostaglandin E2 EIA); format: cell-based
T2 construct: endogenous in cells; host or cells: fresh human whole blood
T2 sequence (P35354 18-604): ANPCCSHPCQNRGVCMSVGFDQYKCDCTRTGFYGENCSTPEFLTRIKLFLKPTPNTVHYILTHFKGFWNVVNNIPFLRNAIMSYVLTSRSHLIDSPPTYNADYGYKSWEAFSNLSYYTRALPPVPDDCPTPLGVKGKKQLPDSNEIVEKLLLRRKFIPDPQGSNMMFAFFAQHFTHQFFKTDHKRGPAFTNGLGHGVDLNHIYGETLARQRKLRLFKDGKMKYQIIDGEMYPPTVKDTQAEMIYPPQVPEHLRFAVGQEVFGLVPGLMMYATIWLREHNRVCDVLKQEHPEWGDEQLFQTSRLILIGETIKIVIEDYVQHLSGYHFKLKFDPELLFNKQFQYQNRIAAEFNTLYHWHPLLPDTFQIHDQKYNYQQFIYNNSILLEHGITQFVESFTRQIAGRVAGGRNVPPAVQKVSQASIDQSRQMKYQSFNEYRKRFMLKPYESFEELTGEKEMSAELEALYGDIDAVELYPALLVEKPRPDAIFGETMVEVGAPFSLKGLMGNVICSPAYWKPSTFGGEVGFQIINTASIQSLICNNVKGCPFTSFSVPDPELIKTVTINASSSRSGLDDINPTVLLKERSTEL

human COX-2 = settings: cited from earlier work; for Selectivity vs. COX-1: human whole blood, COX-2 over COX-1
COX-1 [4] = biological target: T3, COX-1 (Macaca mulatta, UniProt F6S984); assay: COX-1 inhibition, monkey whole blood (Thromboxane B2 EIA)
T3 sequence (F6S984 25-599): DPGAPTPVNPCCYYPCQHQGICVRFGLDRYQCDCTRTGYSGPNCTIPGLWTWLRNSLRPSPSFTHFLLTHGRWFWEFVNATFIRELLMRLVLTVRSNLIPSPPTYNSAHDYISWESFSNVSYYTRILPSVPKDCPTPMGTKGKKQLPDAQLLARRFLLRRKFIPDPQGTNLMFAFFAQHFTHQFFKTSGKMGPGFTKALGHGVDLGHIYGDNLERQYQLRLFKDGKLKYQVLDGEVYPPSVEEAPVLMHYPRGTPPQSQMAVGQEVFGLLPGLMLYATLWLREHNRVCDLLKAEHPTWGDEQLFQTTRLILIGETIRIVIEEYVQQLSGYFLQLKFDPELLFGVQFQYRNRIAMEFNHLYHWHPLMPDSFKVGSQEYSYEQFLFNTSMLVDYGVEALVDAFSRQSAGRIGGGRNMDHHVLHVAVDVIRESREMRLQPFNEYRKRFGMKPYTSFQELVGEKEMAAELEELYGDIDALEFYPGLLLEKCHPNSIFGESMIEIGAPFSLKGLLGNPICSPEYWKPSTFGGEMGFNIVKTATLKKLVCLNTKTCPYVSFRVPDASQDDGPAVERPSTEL
Protocol: as §1

COX-2 [5] = biological target: T4, COX-2 (Macaca mulatta, UniProt F7BWZ9); assay: COX-2 inhibition, monkey whole blood (Prostaglandin E2 EIA)
T4 sequence (F7BWZ9 18-604): T2 sequence (P35354 18-604) with H7Y, F49L, A101V, L150F, S163T, N191K, A208D, R211H, T363N, G570R
Protocol: as §1

COX-1 [6] = biological target: T1, COX-1; parameters: endogenous in cells; host or cells: fresh human whole blood; settings: footnote c; SE <15%; read-out: IC50 COX-1 Human WB (literature); cited from earlier work
benzodiazepine (BzP) = assay: NIMH-PDSP radioligand binding screen, benzodiazepine site; parameters: species or system rat; settings: 10 μM
COX-2 [7] = settings: cited from earlier work
COX-2 [8] = biological target: COX-2; parameters: method as in literature cited in the text (18-30); settings: cited from earlier work
[9] = Measured logD of radioligands (n-octanol / sodium phosphate buffer); format: physicochemical; settings: n-octanol / sodium phosphate buffer 0.1 M pH 7.4; γ-counter
Protocol: cLogD (at pH 7.4) values were computed with Pallas for Windows software version 3.8 in default mode (CompuDrug International; Bal Harbor, FL, USA). The logD values of [^11C]17, [^18F]20, and [d2-^18F]27 were measured by a method that we have described previously. The radioactivity contents in the n-octanol and sodium phosphate buffer (0.1 M; pH 7.4) phases were determined with a γ-counter.

[10] = mean ± SD, triplicate unless d n = 1, e n = 2, read-out: IC50 COX-2 Human WB
[11] = Table 1, human whole blood COX-2, SEM <15%, read-out: HWB IC50
[12] = footnote c, SE <15%, read-out: IC50 COX-2 Human WB (literature) (converted)
[13] = Chart 1, PET in vivo, ref literature cited in the text (18-30)
[14] = Chart 1, ref literature cited in the text (18-30)

T1 sequence (P23219 24-599): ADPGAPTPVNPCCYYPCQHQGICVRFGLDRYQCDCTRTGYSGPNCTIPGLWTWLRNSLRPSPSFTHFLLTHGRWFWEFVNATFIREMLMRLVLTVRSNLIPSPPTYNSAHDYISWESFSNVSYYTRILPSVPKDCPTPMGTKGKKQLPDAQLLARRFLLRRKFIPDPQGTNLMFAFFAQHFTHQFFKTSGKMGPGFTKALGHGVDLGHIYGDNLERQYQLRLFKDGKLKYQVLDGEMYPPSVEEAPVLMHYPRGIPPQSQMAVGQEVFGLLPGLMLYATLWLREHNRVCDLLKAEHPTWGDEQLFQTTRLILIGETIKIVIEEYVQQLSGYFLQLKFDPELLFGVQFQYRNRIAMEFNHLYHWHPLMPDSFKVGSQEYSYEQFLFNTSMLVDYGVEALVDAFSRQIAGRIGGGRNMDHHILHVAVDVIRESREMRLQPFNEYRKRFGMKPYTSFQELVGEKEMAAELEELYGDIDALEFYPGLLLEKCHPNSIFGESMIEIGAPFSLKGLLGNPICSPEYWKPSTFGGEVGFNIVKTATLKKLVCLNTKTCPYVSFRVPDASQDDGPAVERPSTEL

CCOc1cc(NCc2cccs2)nc(-c2ccc(S(C)(=O)=O)cc2)n1 [Compound 18, 6-Ethoxy-2-(4-(methylsulfonyl)phenyl)-N-(thiophen-2-ylmethyl)pyrimidin-4-amine]
inhibition of radioligand binding at all tested receptors, transporters, and binding sites [1]: less than 50%
melting point: 169.2 to 170.4 °C
IC50 (COX-1 [2]): > 10000 nM

CCSc1cc(NCc2cccs2)nc(-c2ccc(S(C)(=O)=O)cc2)n1 [Compound 19, 6-Thioethyl-2-(4-(methylsulfonyl)phenyl)-N-(thiophen-2-ylmethyl)pyrimidin-4-amine]
IC50 (COX-2 [3]; [10]): 3.52 ± 0.43 nM
melting point: 160 to 162.1 °C
IC50 (human COX-2; [11]): 1.2 nM
IC50 (human COX-2; [12]): 1.2 nM
Selectivity vs. COX-1 (human COX-2): >8403
IC50 (COX-1 [2]): > 1000 nM
IC50 (COX-1 [4]): > 1000 nM
IC50 (COX-2 [5]): 52.3 ± 0.01 nM
IC50 (COX-1 [6]): > 10000 nM

CS(=O)(=O)c1ccc(-c2nc(NCc3cccs3)cc(OCCF)n2)cc1 [Compound 20, 6-(2-Fluoroethoxy)-2-(4-(methylsulfonyl)phenyl)-N-(thiophen-2-ylmethyl)pyrimidin-4-amine]
IC50 (COX-2 [3]; [10]): 1.9 nM
melting point: 147.7 to 149.2 °C
IC50 (COX-2 [5]): 1.28 nM

CSc1cc(NCc2cccs2)nc(-c2ccc(S(C)(=O)=O)cc2)n1 [Compound 21, 6-Thiomethyl-2-(4-(methylsulfonyl)phenyl)-N-(thiophen-2-ylmethyl)pyrimidin-4-amine]
IC50 (COX-2 [3]; [10]): 2.65 ± 0.45 nM
melting point: 159.1 to 160.4 °C
IC50 (COX-1 [2]): > 1000 nM
IC50 (COX-1 [4]): > 1000 nM
IC50 (COX-2 [5]): 4.83 ± 2.31 nM

COc1cc(NCc2ccccc2)nc(-c2ccc(S(C)(=O)=O)cc2)n1 [Compound 22, N-Benzyl-6-methoxy-2-(4-(methylsulfonyl)phenyl)pyrimidin-4-amine]
IC50 (COX-2 [3]): 7.35 ± 1.35 nM
melting point: 133.4 to 134.6 °C
Selectivity vs. COX-1 (human COX-2): >19,646
IC50 (human COX-2; read-out: HWB IC50): 5.1 nM
IC50 (human COX-2; read-out: IC50 COX-2 Human WB (literature) (converted)): 5.1 nM
IC50 (COX-1 [2]): > 1000 nM
IC50 (COX-1 [4]): > 1000 nM
IC50 (COX-2 [5]): 14.6 ± 10.1 nM
IC50 (COX-1 [6]): > 100000 nM

CS(=O)(=O)c1ccc(-c2nc(Cl)cc(NCc3ccccc3)n2)cc1 [Compound 23, N-Benzyl-6-chloro-2-(4-(methylsulfonyl)phenyl)pyrimidin-4-amine]
melting point: 130.4 to 131.4 °C
IC50 (COX-1 [6]): > 100000 nM

CS(=O)(=O)c1ccc(-c2nc(O)cc(NCc3ccccc3)n2)cc1 [Compound 24, 6-(Benzylamino)-2-(4-(methylsulfonyl)phenyl)pyrimidin-4-ol]
melting point: 287.9 to 289.2 °C
inhibitory potency for COX-2 (human COX-2): low inhibitory potency
IC50 (COX-1 [2]): > 1000 nM
IC50 (COX-1 [4]): > 1000 nM
IC50 (COX-2 [5]): > 1000 nM
IC50 (COX-1 [6]): > 100000 nM

CS(=O)(=O)c1ccc(-c2nc(Cl)cc(NCc3cccs3)n2)cc1 [Compound 25, 6-Chloro-2-(4-(methylsulfonyl)phenyl)-N-(thiophen-2-ylmethyl)pyrimidin-4-amine]
melting point: 170 to 171.2 °C
IC50 (human COX-2; [11]): 1.2 nM
IC50 (human COX-2; [12]): 1.2 nM
IC50 (COX-1 [2]): > 10000 nM
IC50 (COX-1 [6]): > 100000 nM

CS(=O)(=O)c1ccc(-c2nc(O)cc(NCc3cccs3)n2)cc1 [Compound 26, 2-(4-(Methylsulfonyl)phenyl)-6-(thiophen-2-yl-methylamino)pyrimidin-4-ol]
melting point: 261.7 to 263.2 °C
inhibitory potency for COX-2 (human COX-2): low inhibitory potency
IC50 (COX-1 [6]): > 100000 nM

CS(=O)(=O)c1ccc(-c2nc(NCc3cccs3)cc(OCF)n2)cc1 [Compound 27, 6-(2-Fluoromethoxy)-2-(4-(methylsulfonyl)phenyl)-N-(thiophen-2-yl-methyl)pyrimidin-4-amine]
IC50 (COX-2 [3]; [10]): 2.26 ± 0.63 nM
inhibition of radioligand binding at benzodiazepine (BzP) (benzodiazepine (BzP)): 50.8%
inhibition of radioligand binding at all tested receptors, transporters, and binding sites [1]: less than 50%
IC50 (COX-1 [2]): > 1000 nM
IC50 (COX-1 [4]): > 1000 nM
IC50 (COX-2 [5]): 2.26 ± 0.45 nM

CS(=O)(=O)c1ccc(-c2nc(F)cc(NCc3cccs3)n2)cc1 [Compound 29, 6-Fluoro-2-(4-(methylsulfonyl)phenyl)-N-(thiophen-2-ylmethyl)pyrimidin-4-amine]
IC50 (COX-2 [3]; [10]): 2.5 nM
melting point: 130.4 to 131.4 °C

CN(Cc1cccs1)c1cc(Cl)nc(-c2ccc(S(C)(=O)=O)cc2)n1 [Compound 30, 6-Chloro-N-methyl-2-(4-(methylsulfonyl)phenyl)-N-(thiophen-2-ylmethyl)pyrimidin-4-amine]
IC50 (COX-2 [3]; [10]): > 1000 nM
inhibition of radioligand binding at all tested receptors, transporters, and binding sites [1]: less than 50%

[11CH3]Oc1ccc(-c2cc(C(F)(F)F)nn2-c2ccc(S(N)(=O)=O)cc2)cc1 [[^11C]2]
brain entry (COX-2 [7]; [13]): Low brain penetration

[11CH3]S(=O)(=O)c1ccc(C2=C(c3ccccc3)C(=O)OC2)cc1 [[^11C]4, [^11C]rofecoxib]
brain entry (COX-2 [7]; in vivo): Low brain entry
brain entry (SUV) (COX-2 [7]; in vivo): 0.26 SUV
specific signal / specific binding in vivo (COX-2 [7]; in vivo): No specific binding in rat inflammatory models

[11CH3]Oc1ccc(-c2cncn2-c2ccc(S(N)(=O)=O)cc2)cc1 [[^11C]6]
Ki (COX-2 [8]; [14]): 5 nM
brain entry (COX-2 [7]; [13]): Low brain uptake

[11CH3]Oc1ccc(-c2c(-c3ccc(S(N)(=O)=O)cc3)[nH]c3ccccc23)cc1 [[^11C]7]
brain entry (COX-2 [7]; [13]): Low rat brain uptake

CS(=O)(=O)c1ccc(-c2nc(NCc3cccs3)cc(O[11CH3])n2)cc1 [[^11C]17]
logD [9]: 3.74 ± 0.02

Cc1ccc(-c2cc(C(F)(F)F)nn2-c2ccc(S(=O)(=O)Nc3cccc([18F])c3)cc2)cc1 [[^18F]3]
Ki (COX-2 [8]; [14]): 250 nM

NS(=O)(=O)c1ccc(-c2c(-c3ccccc3)noc2C[18F])cc1 [[^18F]5]
Ki (COX-2 [8]): 2 nM
brain entry (COX-2 [7]; in vivo): Some brain entry
defluorination in vivo (COX-2 [7]; in vivo): Rapidly defluorinated
specific signal / specific binding in vivo (COX-2 [7]; in vivo): No brain specific signal

CS(=O)(=O)c1ccc(-c2nc(NCc3cccs3)cc(OCC[18F])n2)cc1 [[^18F]20]
logD [9]: 2.94 ± 0.32

[2H]C([2H])([18F])Oc1cc(NCc2cccs2)nc(-c2ccc(S(C)(=O)=O)cc2)n1 [[d2-^18F]27]
logD [9]: 3.7 ± 0.12
